Measurements reported in PubChem BioAssay AID1871 (NMMLSC, 2009).
Active and inactive are the calls of the source. No rule for the calls is given here.

Each compound was assayed against Regulator of G-protein signaling 7 (Homo sapiens) (UniProt P49802) (assay: potency of compounds altering RGS7-Galphao association – biochemical, multiplexed bead flow cytometry, dose response (AID 1871)). Conditions: bead-based flow cytometry, RGS7-Galphao binding.
Sequence of Regulator of G-protein signaling 7 (Homo sapiens) (P49802 whole entry, looked up): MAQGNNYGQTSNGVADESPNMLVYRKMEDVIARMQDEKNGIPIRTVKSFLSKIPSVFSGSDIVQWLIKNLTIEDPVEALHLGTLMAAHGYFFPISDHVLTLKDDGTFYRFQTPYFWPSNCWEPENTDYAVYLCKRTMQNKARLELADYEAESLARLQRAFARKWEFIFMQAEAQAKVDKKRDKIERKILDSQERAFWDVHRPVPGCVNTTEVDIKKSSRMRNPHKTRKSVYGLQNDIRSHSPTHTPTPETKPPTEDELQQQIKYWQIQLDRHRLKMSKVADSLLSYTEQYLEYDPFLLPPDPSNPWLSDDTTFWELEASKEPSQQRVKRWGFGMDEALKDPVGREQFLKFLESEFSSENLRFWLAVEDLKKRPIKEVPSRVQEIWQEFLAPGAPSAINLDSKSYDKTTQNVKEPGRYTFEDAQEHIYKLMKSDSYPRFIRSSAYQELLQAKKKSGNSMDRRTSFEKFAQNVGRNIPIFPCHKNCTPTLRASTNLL

Row | SMILES | EC50
1 | CN(C)[C@@H]1C(=O)C(C(=O)NCN2CCCC2)=C(O)[C@@]2(O)C(=O)C3=C(O)c4c(O)cccc4[C@@](C)(O)C3CC12 (stereo partly drawn) | 4.35 µM
2 | O=c1[nH]c(=S)n(Cc2ccco2)c(O)c1C=NCc1cccs1 | > 30 µM (inactive)
3 | O=C1CCCC2=C1C(c1cccs1)n1ncnc1N2 (stereo not drawn) | > 30 µM (inactive)
4 | CCOC(=O)/C(C(=O)Nc1ccccc1Cl)=C1/NC(C)(C)Cc2ccccc21 | > 30 µM (inactive)
5 | NS(=O)(=O)c1ccc(N/N=C/c2ccc(O)c(O)c2O)c([N+](=O)[O-])c1 | 1.95 µM
6 | CCOC(=O)N=Nc1c(O)n(C)c2ccccc12 | > 30 µM (inactive)
7 | COc1ccc(Br)cc1/C=N/Nc1cccc(C(=O)O)c1 | > 30 µM (inactive)
8 | CC(C)Sc1nc2ccc(N3C(=O)C4CCCCC4C3=O)cc2s1 (stereo not drawn) | > 30 µM (inactive)
9 | CCOC(=O)C1=C(C)NC(C)=C(C(=O)OCCNC(=O)c2cccnc2)C1c1cccc([N+](=O)[O-])c1 (stereo not drawn) | > 30 µM (inactive)

Same assay, conditions: bead-based flow cytometry, RGS7-Galphao binding; measured here: Ki for RGS7-Galphao

Row | SMILES | Ki [µM]
10 | O=C(OCC1O[C@@H](OC(=O)c2cc(O)c(O)c(O)c2)[C@@H](OC(=O)c2cc(O)c(O)c(O)c2)[C@@H](OC(=O)c2cc(O)c(O)c(O)c2)[C@@H]1OC(=O)c1cc(O)c(O)c(O)c1)c1cc(O)c(O)c(O)c1 (stereo partly drawn) | 0.37
11 | CCCNC(=O)Cn1sc2nc(C)cc(C)c2c1=O | 4.08
12 | O=C(O)C[C@@H]1C(=O)O[C@@H]2C(COC(=O)c3cc(O)c(O)c(O)c3)O[C@@H](OC(=O)c3cc(O)c(O)c(O)c3)[C@@H](OC(=O)c3cc(O)c(O)c4c3[C@H]1[C@H](O)C(=O)O4)[C@H]2OC(=O)c1cc(O)c(O)c(O)c1 (stereo partly drawn) | 0.51
13 | O=C(COc1ccccc1C(=O)N/N=C\c1ccc(O)c(O)c1)N/N=C/c1ccc(O)c(O)c1 | 1.94
14 | O=c1c2ccccc2sn1-c1ccc(S(=O)(=O)N2CCCC2)cc1 | 0.53
15 | COCCCNC(=O)c1ccc2c3c(onc13)-c1ccccc1C2=O | 1.48
16 | CCN(CC)S(=O)(=O)c1cccc(C(=O)N/N=C/c2ccc(O)c(O)c2O)c1 | 3.3
17 | CN(C)[C@@H]1C(=O)C(C(=O)NCN2CCCC2)=C(O)[C@@]2(O)C(=O)C3=C(O)c4c(O)cccc4[C@@](C)(O)C3CC12 (stereo partly drawn) | 3.7
18 | COc1ccc(OC)c(CCNC(=O)Cn2sc3nc(C)cc(C)c3c2=O)c1 | 3.45
19 | O=C1C(Cl)=C(N2CCCCC2)C(=O)C(Cl)=C1c1cnc(N2CCCCC2)s1 | 0.71
20 | CCC(=O)NC1=C(Cl)C(=O)C(NC(=O)CC)=C(Cl)C1=O | 3.33
21 | CCN=c1scc(C)n1/N=C/c1ccc(O)c(O)c1O | 11.9
22 | O=C(Cc1csc(N2CCOCC2)n1)N/N=C/c1ccc(O)c(O)c1O | 7.67
23 | CCOc1ccccc1-c1c2cc(O)c(=O)cc-2oc2cc(O)c(O)cc12 | 6.17
24 | CN1CCN(C2=C(Cl)C(=O)C(c3cnc(N4CCCCC4)s3)=C(Cl)C2=O)CC1 | 0.15
25 | CN(C)c1ncc(C2=C(Cl)C(=O)C(N3CCCC3)=C(Cl)C2=O)s1 | 1.15
26 | CCC(=O)NC(c1ccc(C)cc1)c1cc([N+](=O)[O-])c2cccnc2c1O (stereo not drawn) | 11.4
27 | Nc1c(C(=O)NCC2CCCO2)sc2nc3c(c(-c4ccco4)c12)CC/C3=C\c1ccco1 (stereo not drawn) | 3.12
28 | O=C(O[C@@H]1OC2COC(=O)c3cc(O)c(O)c(O)c3-c3c(cc(O)c(O)c3O)C(=O)O[C@@H]([C@H]1O)[C@@H]2O)c1cc(O)c(O)c(O)c1 | 0.98
29 | O=C1OCC2OC(O)C(O)C(O)C2OC(=O)c2cc(O)c(O)c(O)c2-c2c(O)c(O)c3oc(=O)c4c(c(O)c(O)c5oc(=O)c2c3c54)-c2c1cc(O)c(O)c2O (stereo not drawn) | 1.75
30 | NS(=O)(=O)c1ccc(N/N=C/c2ccc(O)c(O)c2O)c([N+](=O)[O-])c1 | 1.66
31 | O=C1CCC(=O)N(O)CCCCCNC(=O)CCC(=O)N(O)CCCCCNC(=O)CCC(=O)N(O)CCCCCN1 | 2.01
32 | CN=c1scc(C)n1/N=C/c1ccc(O)c(O)c1O | 8.75
33 | CC(=O)N(O)CCCCCNC(=O)CCC(=O)N(O)CCCCCNC(=O)CCC(=O)N(O)CCCCCN | 1.05
34 | CC1(C)OC(=O)C(=Cc2ccc(-c3ccc(S(N)(=O)=O)cc3)o2)C(=O)O1 | 4.87
35 | CCNc1ccc2noc3c2c1C(=O)c1ccccc1-3 | 22.2
36 | C/C(=N/NC(=O)c1cc(O)c(O)c(O)c1)c1ccc([N+](=O)[O-])cc1 | 18.1
37 | COc1ccc(C2=CC(=O)C=CC2=O)cc1 | 8.17
38 | O=[N+]([O-])c1ccc(Sc2cccc[n+]2[O-])c2nonc12 | 4.06
